The values below are quoted from earlier work in patent US5667811A, “Na-K-ATPase inhibiting natriuretic substances” (The Regents of the University of California, priority 1992, dated 1997).

No end group written: not given here.

One data set deals with Na-K-ATPase. The note with it: literature.
In a further data set the test system is active transport. The conditions noted are these: literature.

Take lysophosphatidyl choline: the Na-K-ATPase inhibition entry with Na-K-ATPase is “potent Na-K-ATPase inhibitors”. Consider “ANF: atrial natriuretic factor, synthesized or stored in cardiac atria (SLRRSSCFGGRMDRIGAQSGLGCNSFRY; ends and bridges not checked; cysteine pairing not given here; UniProt P01160 124-151, looked up)”, for which, in the data set with active transport, the “inhibition of active transport” value is “does not inhibit active transport”.
